Laboratory results: PMC5320518, “Novel Liver-targeted conjugates of Glycogen Phosphorylase Inhibitor PSN-357 for the Treatment of Diabetes: Design, Synthesis, Pharmacokinetic and Pharmacological Evaluations” (Scientific Reports, 2017)
Where a name gives a salt, the structure may show the parent alone. Read-outs that look alike come from different tables or passages of the source.

Tests used:
HepG2 cells = experiment: Glycogenolysis inhibition in HepG2 cells; type: cell-based, human; details: read-out: IC50 (glycogenolysis inhibition, HepG2 cells)
Text: (§1) To evaluate the effects of all compounds in cells, the glycogenolysis assays were established in both rat and human liver cells based on the published method. […] The inhibitory activities of the derivatives of PSN-357 (e.g. 25–28) were also explored. It is not surprising that the derivatives still retained micromolar inhibitory activities. Introduction of steric bulks to the hydroxyl group (e.g. 33, 40, 42, 48) led to a complete loss of activity. Data analysis indicated no clear SAR for the substitutents in the cell-based assays.
(§2) The inhibition of hepatic glycogenolysis was monitored by the measurement of liver glycogen, which was done quantitatively by the anthrone reagent (Sigma) colorimetric method based on the published method. Isolated rat hepatocytes or HepG2 cells (Sigma) were treated with the test compound or DMSO solvent (final concentration, 0.10%), followed by 60-min incubation with 0.3 nM glucagon (GGN). Assays were terminated by centrifugation, and cells were digested with 30% KOH followed by glycogen determination. The IC50 values were estimated by fitting the inhibition data to a dose-dependent curve using a logistic derivative equation.

isolated rat hepatocytes = experiment: Glycogenolysis inhibition in isolated rat hepatocytes; type: cell-based; details: mean ± S.D. of three, NI means no inhibition
Text: as §1, §2

[1] = Stability in mouse liver microsomes (MLM); type: in vitro ADME; details: for CLint scaled at 10 μM / half-life at 10 μM / microsomal CLint at 10 μM: C57BL/6, pH 7.4, n = 3
Experimental: Additionally, the compounds’ stability in microsome were evaluated by measuring the rate of compounds consumpation in MLM and the results are shown in Table 3.
The microsomal pellet was suspended in potassium phosphate buffer (100 mM, pH 7.4), 10 μM test compound or positive control (diclofenac) was added. Liver microsomes from C57BL/6 mice (BD Gentest) were pooled. The mixture of microsome solution and compound was incubated at 37 °C for about 10 min in the presence of a NADPH-regenerating system, consisting of 0.02 M DL-isocitric acid (trisodium salt), 0.1 mg/mL isocitrate dehydrogenase and 1 mM NADPH. The addition of ice-cold CH3CN (including 100 ng/mL tolbutamide as internal standard) terminated the reaction. The mixture was vortexed for approx (30 s), centrifuged (20 min, 4000 rpm) and the supernatant was collected and analysed by LC-MS/MS method.

[2] = Stability in simulated gastric fluid (SGF); type: in vitro ADME; details: SGF pH 1.21 with pepsin, 2 μM, 37 °C, 24 h incubation
Experimental: (§3) All the conjugates were tested for their chemical and metabolic stability in multiple assays, including simulated gastric fluid (SGF), simulated interstinal fluid (SIF), mouse plasma, and mouse liver microsome (MLM).
(§4) For the stability in SGF (Fig. 8) and SIF (Fig. 9), the conjugates could be divided into three groups: (1) stable conjugates 2, 6 and 9. […] The two conjugates were degraded within 6 h and 1 h in SGF and SIF, respectively, with alomost no conjugates at the end of the 24 h incubation in both SGF and SIF; (3) complicated conjugates 3, 4, 5 and 8.
(§5) The simulated gastrointestinal fluids were prepared according to USP specifications. For SGF, NaCl (0.12 g) and pepsin (0.18 g, from porcine stomach mucosa) was dissolved in HCl (0.42 mL) and sufficient H2O was added to make 60 mL. The pH of the test solution was determined as 1.21 by pH meter. For the SIF, KH2PO4 (0.408 g) and pancreatin (0.6 g, from porcine pancreas) was dissolved in H2O (60 mL). The pH of the test solution was determined as 6.79 by pH meter. Each test compound was dissolved in DMSO and diluted to a final concentration of 2 μM in SIF and SGF. The final concentrations of DMSO and CH3CN in the incubation mixture were 0.2% and 0.45%. Aliquots of these solutions were pipetted into glass tubes, and placed in a 37 °C shaking water bath. Test samples at corresponding time point (1, 2, 6, 24 h) were removed at the end of incubation time and immediately mixed with 800 μL of cold acetonitrile containing 500 ng/mL tolbutamide (internal standard). Samples were subjected to centrifuge at 4000 rpm, 4 °C for 20 min. Aliquots 60 μL of supernatant was combined with 120 μL water for LC-MS/MS analysis.

[3] = target: T1, rabbit muscle GPa (RMGPa) (Oryctolagus cuniculus, UniProt P00489); experiment: RMGPa inhibition assay (phosphate release from glucose-1-phosphate); type: biochemical; details: for IC50: mean ± S.D. of three determinations, NI means no inhibition
T1 sequence (P00489 2-843 limits assumed): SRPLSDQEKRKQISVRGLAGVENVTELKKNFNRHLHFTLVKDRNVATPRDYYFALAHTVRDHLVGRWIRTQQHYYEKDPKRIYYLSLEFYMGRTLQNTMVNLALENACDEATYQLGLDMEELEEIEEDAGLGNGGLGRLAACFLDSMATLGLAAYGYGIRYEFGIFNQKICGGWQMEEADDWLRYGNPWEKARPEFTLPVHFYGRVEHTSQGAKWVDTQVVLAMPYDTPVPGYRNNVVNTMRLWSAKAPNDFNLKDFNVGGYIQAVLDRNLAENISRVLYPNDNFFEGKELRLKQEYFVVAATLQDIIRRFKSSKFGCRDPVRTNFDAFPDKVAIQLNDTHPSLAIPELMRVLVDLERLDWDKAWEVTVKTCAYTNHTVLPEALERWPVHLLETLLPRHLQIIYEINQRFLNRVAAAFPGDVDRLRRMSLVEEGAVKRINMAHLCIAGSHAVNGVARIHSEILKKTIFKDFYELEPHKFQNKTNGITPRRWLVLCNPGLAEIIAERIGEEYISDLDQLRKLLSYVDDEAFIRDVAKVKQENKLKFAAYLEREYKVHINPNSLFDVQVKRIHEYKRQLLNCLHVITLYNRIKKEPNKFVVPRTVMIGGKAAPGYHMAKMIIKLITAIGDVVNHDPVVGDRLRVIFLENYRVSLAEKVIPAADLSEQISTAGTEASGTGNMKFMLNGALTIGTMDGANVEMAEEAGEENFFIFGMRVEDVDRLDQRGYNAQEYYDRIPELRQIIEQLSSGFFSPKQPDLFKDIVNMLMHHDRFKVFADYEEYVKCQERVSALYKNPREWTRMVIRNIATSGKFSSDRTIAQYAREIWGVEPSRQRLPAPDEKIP
Experimental: All the compounds were evaluated for their inhibitory activity against rabbit muscle GPa (RMGPa). The activity of RMGPa was measured through detecting the release of phosphate from glucose-1-phosphate in the direction of glycogen synthesis. CP-91149, a well-known allosteric GP inhibitor, which shares the same binding site with PSN-357, was used as the positive control and the results are summarized in Table 1[21]. […] This remarkable loss of activity was probably due to the direct steric interference by such bulky substituent of cholic acid group. […] The results is consistent with the SARs of PSN-357 that the hydroxyl of piperidine is not an essential group for the GP inhibitory activity that could be modified slightly.
The inhibitory activity of the test compounds against rabbit muscle glycogen phosphorylase a (GPa) was monitored using microplate reader (BIO-RAD) based on the published method. In brief, GPa activity was measured in the direction of glycogen synthesis by the release of phosphate from glucose-1-phosphate. Each test compound was dissolved in DMSO and diluted at different concentrations for IC50 determination. The enzyme was added into 100 μL of buffer containing 50 mM Hepes (pH = 7.2), 100 mM KCl, 2.5 mM MgCl2, 0.5 mM glucose-1-phosphate, 1 mg/mL glycogen and the test compound in 96-well microplates (Costar). After the addition of 150 μL of 1 M HCl containing 10 mg/mL ammonium molybdate and 0.38 mg/mL malachite green, reactions were run at 22 °C for 25 min, and then the phosphate absorbance was measured at 655 nm. The IC50 values were estimated by fitting the inhibition data to a dose-dependent curve using a logistic derivative equation.

[4] = Stability in simulated intestinal fluid (SIF); type: in vitro ADME; details: SIF pH 6.79 with pancreatin, 2 μM, 37 °C
Experimental: as §3, §4, §5

[5] = Homo sapiens, HepG2, 1 h, HepG2 cells, 60-min incubation with 0.3 nM glucagon, mean ± S.D. of three, NI means no inhibition
[6] = Rattus norvegicus, Hepatocyte, 1 h, read-out: IC50 (glycogenolysis inhibition, rat hepatocytes), isolated rat hepatocytes, 60-min incubation with 0.3 nM glucagon
[7] = Hepatocyte, 1 h, isolated rat hepatocytes, 60-min incubation with 0.3 nM glucagon, read-out: IC50 (glycogenolysis inhibition, rat hepatocytes)

SMILES	IC50 (HepG2 cells; [5]) [µM]	IC50 [3] [µM]	IC50 (isolated rat hepatocytes; [7]) [µM]	melting point [°C]	further results
CC(CCC(=O)NC(Cc1ccccc1)C(=O)NC(CCCCN)C(=O)OC1CCN(C(=O)C(Cc2ccc(F)cc2)NC(=O)c2cc3cc(Cl)ncc3[nH]2)CC1)C1CCC2C3C(O)CC4CC(O)CCC4(C)C3CC(O)C12C (centres unmarked) [Conjugate 8]	36.8 ± 4.14	10.7 ± 5.6			IC50 (isolated rat hepatocytes; [6]): 64.5 ± 4.4 µM; metabolic stability in MLM (in words) [1]: considerable metabolic stability; CLint scaled at 10 μM [1]: 64.2 mL/min/kg; half-life at 10 μM [1]: 85.6 min; microsomal CLint at 10 μM [1]: 16.2 µL/min/mg; stability in SGF (in words) [2]: relatively stable; time within which degraded in SIF [4]: ≤ 1 h
CC(C)(C)OC(=O)N[C@@H](Cc1ccccc1)C(=O)N[C@@H](CCCCNC(=O)OCC1c2ccccc2-c2ccccc21)C(=O)OC1CCN(C(=O)[C@H](Cc2ccc(F)cc2)NC(=O)c2cc3cc(Cl)ncc3[nH]2)CC1 [Compound 40]	33.6 ± 12.2	3.44 ± 0.22	38.4 ± 5.76		
N[C@@H](CO)C(=O)OC1CCN(C(=O)[C@H](Cc2ccc(F)cc2)NC(=O)c2cc3cc(Cl)ncc3[nH]2)CC1 [Compound 28]	2.88 ± 0.16	0.52 ± 0.01	13.6 ± 0.23		fold less potent than PSN-357 (RMGPa) ([3]; vs PSN-357): approximately 1.25 fold
O=C(CCc1ccccc1/N=N/c1ccc(C(=O)O)cc1)OC1CCN(C(=O)[C@H](Cc2ccc(F)cc2)NC(=O)c2cc3cc(Cl)ncc3[nH]2)CC1 [Compound 48]	9.18 ± 7.42	3.11 ± 0.05	35 ± 3.46	127 to 129	
CC(C)[C@H](N)C(=O)OC1CCN(C(=O)[C@H](Cc2ccc(F)cc2)NC(=O)c2cc3cc(Cl)ncc3[nH]2)CC1 (as salt: hydrochloride) [Compound 27]				214 to 216	
CC(C)[C@H](NC(=O)OC(C)(C)C)C(=O)N[C@@H](C)C(=O)OC1CCN(C(=O)[C@H](Cc2ccc(F)cc2)NC(=O)c2cc3cc(Cl)ncc3[nH]2)CC1 [Compound 33]		27 ± 6.39	11.1 ± 3.67	151 to 153	
CC(C)(C)OC(=O)C[C@H](NC(=O)OC(C)(C)C)C(=O)OC1CCN(C(=O)[C@H](Cc2ccc(F)cc2)NC(=O)c2cc3cc(Cl)ncc3[nH]2)CC1 [Compound 25]	15.1 ± 4.11	0.81 ± 0.077	10.2 ± 1.13	118 to 120	
CC(C)(C)OC(=O)c1ccc(/N=N/c2ccccc2CCC(=O)OC2CCN(C(=O)[C@H](Cc3ccc(F)cc3)NC(=O)c3cc4cc(Cl)ncc4[nH]3)CC2)cc1 [Compound 47]			97.6 ± 1.1	123 to 125	
CC(CCC(=O)NC(Cc1ccccc1)C(=O)NC(CCCCNC(=O)OCC1c2ccccc2-c2ccccc21)C(=O)OC1CCN(C(=O)C(Cc2ccc(F)cc2)NC(=O)c2cc3cc(Cl)ncc3[nH]2)CC1)C1CCC2C3C(O)CC4CC(O)CCC4(C)C3CC(O)C12C (centres unmarked) [Compound 42]		15.4 ± 0.89	5.56 ± 2.41	149 to 151	IC50 (HepG2 cells; Homo sapiens, HepG2, 1 h): 180 ± 51.2 µM
CN(C)C(=O)[C@H](O)[C@H](Cc1ccccc1)NC(=O)c1cc2cc(Cl)ccc2[nH]1 [CP-91149, reference compound]		0.09 ± 0.04			IC50 (HepG2 cells; HepG2 cells, 60-min incubation with 0.3 nM glucagon, mean ± S.D. of three, NI means no inhibition): 2.53 ± 0.78 µM; IC50 (isolated rat hepatocytes; isolated rat hepatocytes, 60-min incubation with 0.3 nM glucagon, read-out: IC50 (glycogenolysis inhibition, rat hepatocytes)): 3.08 ± 1.16 µM
CC(C)[C@H](N)C(=O)OC1CCN(C(=O)[C@H](Cc2ccc(F)cc2)NC(=O)c2cc3cc(Cl)ncc3[nH]2)CC1 [Compound 27]	16.8 ± 3.71	0.88 ± 0.17	14.7 ± 4.99		
C[C@H](N)C(=O)OC1CCN(C(=O)[C@H](Cc2ccc(F)cc2)NC(=O)c2cc3cc(Cl)ncc3[nH]2)CC1 [Compound 26]	6.99 ± 2.1	0.56 ± 0.043	9.79 ± 9.65		
O=C(O)Cc1ccccc1Nc1c(Cl)cccc1Cl [Diclofenac, diclofenac, reference compound]					CLint scaled at 10 μM [1]: 208 mL/min/kg; half-life at 10 μM [1]: 26.3 min; microsomal CLint at 10 μM [1]: 52.6 µL/min/mg
C[C@H](NC(=O)CC[C@@H](C)[C@H]1CC[C@H]2[C@@H]3[C@H](O)C[C@@H]4C[C@H](O)CC[C@]4(C)[C@H]3C[C@H](O)[C@]12C)C(=O)OC1CCN(C(=O)[C@H](Cc2ccc(F)cc2)NC(=O)c2cc3cc(Cl)ncc3[nH]2)CC1 [Conjugate 3]		40.5 ± 15.7			IC50 (isolated rat hepatocytes; [6]): 632 ± 99.4 µM; CLint scaled at 10 μM [1]: 200 mL/min/kg; half-life at 10 μM [1]: 27.4 min; microsomal CLint at 10 μM [1]: 50.6 µL/min/mg; stability in SGF (in words) [2]: relatively stable; time within which degraded in SIF [4]: ≤ 1 h
